Measured values published in patent US20110318426A1, “ANTIBACTERIAL AGENT AND METHOD OF USING THE SAME” (OSAKA MUNICIPAL TECHNICAL RESEARCH INSTITUTE, priority 2009, published 2011).

Key:
Format in all cases: cell-based
[1] = test system: Bacillus subtilis (IFO3215); assay: MIC determination test (growth by absorbance at 620 nm)
Method: (§1) Then, the suspensions were centrifuged (5800×g, 30 min), whereby supernatants were obtained.
(§2) In each of the obtained LB culture media containing the antibacterial agents, 1 μL of Escherichia coli (IF03972), Staphyloccocus aureus (IAM112082), Pseudomonas aeruginosa (IAM11514), or Bacillus subtilis (IFO3215), which are microorganisms generally used in the evaluation of antibacterial properties, was inoculated and cultured at 27° C. for 5 days. Microplates (96-well microplates, available Falcon) were used for the culturing of the microorganisms, and the growth of the microorganisms was checked by determination of absorbance at 620 nm with a microplate reader (Multisckan Ascent available from Labsystems). As the microorganisms to be inoculated, those prepared as follows were used: microorganisms of each type were cultured under agitation at 27° C. for 18 hours in a 5 mL of an ordinary bouillon culture medium (available from Eiken Chemical Co., Ltd.), then, 1 mL of the same was sampled and centrifuged at 10000 rpm for 5 minutes, sediments were suspended in 1 ml of a 0.85% saline solution, and the suspension was diluted to 100 times.
as §1
(§3) In each of the obtained LB culture media containing the antibacterial agents, 1 μL of Staphyloccocus aureus or Bacillus subtilis was inoculated and cultured at 27° C. for 5 days. Microplates (96-well microplates, available Falcon) were used for the culturing of the microorganisms, and the growth of the microorganisms was checked by determination of absorbance at 620 nm with a microplate reader (Multisckan Ascent available from Labsystems). As the microorganisms to be inoculated, those prepared as follows were used: microorganisms of each type were cultured under agitation at 27° C. for 18 hours in a 5 mL of an ordinary bouillon culture medium (available from Eiken Chemical Co., Ltd.), then, 1 mL of the same was sampled and centrifuged at 10000 rpm for 5 minutes, sediments were suspended in 1 ml of a 0.85% saline solution, and the suspension was further diluted to 100 times.
as §1

[2] = test system: Escherichia coli (IF03972); assay: as above
Method: as §1, §2, §1, §3, §1

[3] = test system: Pseudomonas aeruginosa (IAM11514); assay: as above
Method: as §1, §2, §1, §3, §1

[4] = test system: Staphyloccocus aureus (IAM112082); assay: as above
Method: as §1, §2, §1, §3, §1

Escherichia coli = assay: Bactericidal effect determination test (viable count, pour plate method); conditions: for count of viable Escherichia coli: detection limit
Method: as §1
(§4) An Escherichia coli suspension, 20 μL, was added to each of the obtained LB culture media containing the antibacterial agents, whereby liquids for use in the bactericidal effect determination test were obtained. The liquids were sampled, 50 μL each, at the start, one hour later, three hours later, and 24 hours later, and each sample was added to 4.95 mL of a LP diluent. Each resultant was diluted at four steps, ten times each, and the count of viable bacteria in 1 mL of each diluted liquid was determined by the pour plate method. The Escherichia coli suspension used was a suspension obtained by culturing Escherichia coli under agitation at 27° C. for 18 hours in a 5 mL of an ordinary bouillon culture medium (available from Eiken Chemical Co., Ltd.), then, sampling 1 mL of the same and centrifuging the sample at 10000 rpm for 5 minutes, thereafter, suspending sediments in 1 ml of a 0.85% saline solution, and diluting the same to 10 times.
The suspension was agitated at 30° C. for 18 hours. Then, the suspension was centrifuged (5800×g, 30 min), whereby a supernatant, i.e., an LB culture medium containing an antibacterial agent, was prepared.
as §4, with “to” for “to each of”, “medium” for “media”, “agent,” for “agents,”, “liquid was” for “liquids were”, “start, 0.25 hour later,” for “start,”, “eight” for “24”

O.O.O.O.O.O.O.O=S(=O)([O-])[O-].[Zn+2] [zinc ions, zinc sulfate heptahydrate]
antibacterial property when phosphorus-adsorbing material was mixed [1]: improved | antibacterial property when phosphorus-adsorbing material was mixed [2]: did not improve | antibacterial property when phosphorus-adsorbing material was mixed [3]: did not improve | MIC decrease relative to no allophane (fraction) [4]: about ⅛ | antibacterial property when phosphorus-adsorbing material was mixed [4]: improved

O=[N+]([O-])[O-].[Ag+] [silver ions, silver nitrate]
MIC of silver ions ([2]; 0.5 to 1% (W/V) of allophane contained): 0.5 µg/mL | MIC of silver ions ([2]; 2% (W/V) of allophane contained): 0.125 µg/mL | MIC of silver ions ([2]; 4% (W/V) of allophane contained): 0.0313 µg/mL | MIC of silver ions ([2]; allophane not contained): about 1 mg/L | viable Escherichia coli observed (Escherichia coli; silver ions 1 mg/L, 1% (W/V) of allophane): only few Escherichia coli were observed | count of viable Escherichia coli (Escherichia coli; silver ions 1 mg/L, 4% (W/V) of regenerated collagen powder): < 1000 cfu/ml | count of viable Escherichia coli (Escherichia coli; silver ions 1 mg/L, 4% or more of allophane): < 1000 cfu/ml | Count of viable bacteria (Escherichia coli; silver ions 1 mg/L, allophane 0% (W/V), time 0 h): 10,800,000 cfu/mL | Count of viable bacteria (Escherichia coli; silver ions 1 mg/L, allophane 0% (W/V), time 1 h): 14,900,000 cfu/mL | Count of viable bacteria (Escherichia coli; silver ions 1 mg/L, allophane 0% (W/V), time 3 h): 3,930,000 cfu/mL | Count of viable bacteria (Escherichia coli; silver ions 1 mg/L, allophane 0% (W/V), time 24 h): 95,000,000 cfu/mL | Count of viable bacteria (Escherichia coli; silver ions 1 mg/L, allophane 1% (W/V), time 0 h): 10,800,000 cfu/mL | Count of viable bacteria (Escherichia coli; silver ions 1 mg/L, allophane 1% (W/V), time 1 h): 52,000 cfu/mL | Count of viable bacteria (Escherichia coli; silver ions 1 mg/L, allophane 1% (W/V), time 3 h): 3,500 cfu/mL | Count of viable bacteria (Escherichia coli; silver ions 1 mg/L, allophane 1% (W/V), time 24 h): 2,600 cfu/mL | Count of viable bacteria (Escherichia coli; silver ions 1 mg/L, allophane 4% (W/V), time 0 h): 10,800,000 cfu/mL | Count of viable bacteria (Escherichia coli; silver ions 1 mg/L, allophane 4% (W/V), time 1 h): 1,100 cfu/mL | Count of viable bacteria (Escherichia coli; silver ions 1 mg/L, allophane 4% (W/V), time 3 h): 1,000 or less cfu/mL | Count of viable bacteria (Escherichia coli; silver ions 1 mg/L, allophane 4% (W/V), time 24 h): 1,000 or less cfu/mL | Count of viable bacteria (Escherichia coli; silver ions 1 mg/L, allophane 8% (W/V), time 0 h): 10,800,000 cfu/mL | Count of viable bacteria (Escherichia coli; silver ions 1 mg/L, allophane 8% (W/V), time 1 h): 1,000 or less cfu/mL | Count of viable bacteria (Escherichia coli; silver ions 1 mg/L, allophane 8% (W/V), time 3 h): 1,000 or less cfu/mL | Count of viable bacteria (Escherichia coli; silver ions 1 mg/L, allophane 8% (W/V), time 24 h): 1,000 or less cfu/mL | Count of viable bacteria (Escherichia coli; silver ions 1 mg/L, regenerated collagen powder 0% (W/V), time 1 h): 6.2 × 10^7 cfu/mL | Count of viable bacteria (Escherichia coli; silver ions 1 mg/L, regenerated collagen powder 0% (W/V), time 3 h): 6.7 × 10^7 cfu/mL | Count of viable bacteria (Escherichia coli; silver ions 1 mg/L, regenerated collagen powder 0% (W/V), time 8 h): 2.4 × 10^7 cfu/mL | Count of viable bacteria (Escherichia coli; silver ions 1 mg/L, regenerated collagen powder 0% (W/V), time […]): 8.1 × 10^7 cfu/mL | Count of viable bacteria (Escherichia coli; silver ions 1 mg/L, regenerated collagen powder 4% (W/V), time 1 h): 9.9 × 10^6 cfu/mL | Count of viable bacteria (Escherichia coli; silver ions 1 mg/L, regenerated collagen powder 4% (W/V), time 3 h): 1.4 × 10^5 cfu/mL | Count of viable bacteria (Escherichia coli; silver ions 1 mg/L, regenerated collagen powder 4% (W/V), time 8 h): ≤ 1.0 × 10^3 cfu/mL | Count of viable bacteria (Escherichia coli; silver ions 1 mg/L, regenerated collagen powder 4% (W/V), time […]): 4.7 × 10^4 cfu/mL | count of viable Escherichia coli (Escherichia coli; silver ions 5 mg/L, 1% (W/V) or more of allophane): < 1000 cfu/ml | Count of viable bacteria (Escherichia coli; silver ions 5 mg/L, allophane 0% (W/V), last time point (24 h, time cell misprinted)): 1000 or less cfu/mL | Count of viable bacteria (Escherichia coli; silver ions 5 mg/L, allophane 0% (W/V), time 0 h): 10,800,000 cfu/mL | Count of viable bacteria (Escherichia coli; silver ions 5 mg/L, allophane 0% (W/V), time 1 h): 6,000,000 cfu/mL | Count of viable bacteria (Escherichia coli; silver ions 5 mg/L, allophane 0% (W/V), time 3 h): 29,000 cfu/mL | Count of viable bacteria (Escherichia coli; silver ions 5 mg/L, allophane 1% (W/V), last time point (24 h, time cell misprinted)): 1,000 or less cfu/mL | Count of viable bacteria (Escherichia coli; silver ions 5 mg/L, allophane 1% (W/V), time 0 h): 10,800,000 cfu/mL | Count of viable bacteria (Escherichia coli; silver ions 5 mg/L, allophane 1% (W/V), time 1 h): 1,000 or less cfu/mL | Count of viable bacteria (Escherichia coli; silver ions 5 mg/L, allophane 1% (W/V), time 3 h): 1,000 or less cfu/mL | Count of viable bacteria (Escherichia coli; silver ions 5 mg/L, allophane 4% (W/V), last time point (24 h, time cell misprinted)): 1,000 or less cfu/mL | Count of viable bacteria (Escherichia coli; silver ions 5 mg/L, allophane 4% (W/V), time 0 h): 10,800,000 cfu/mL | Count of viable bacteria (Escherichia coli; silver ions 5 mg/L, allophane 4% (W/V), time 1 h): 1,000 or less cfu/mL | Count of viable bacteria (Escherichia coli; silver ions 5 mg/L, allophane 4% (W/V), time 3 h): 1,000 or less cfu/mL | Count of viable bacteria (Escherichia coli; silver ions 5 mg/L, allophane 8% (W/V), last time point (24 h, time cell misprinted)): 1,000 or less cfu/mL | Count of viable bacteria (Escherichia coli; silver ions 5 mg/L, allophane 8% (W/V), time 0 h): 10,800,000 cfu/mL | Count of viable bacteria (Escherichia coli; silver ions 5 mg/L, allophane 8% (W/V), time 1 h): 1,000 or less cfu/mL | Count of viable bacteria (Escherichia coli; silver ions 5 mg/L, allophane 8% (W/V), time 3 h): 1,000 or less cfu/mL

O.O.O.O.O.O=S(=O)([O-])[O-].[Cu+2] [copper ions, copper sulfate pentahydrate]
antibacterial property when phosphorus-adsorbing material was mixed [1]: improved | antibacterial property when phosphorus-adsorbing material was mixed [2]: did not improve | antibacterial property when phosphorus-adsorbing material was mixed [3]: did not improve | antibacterial property when phosphorus-adsorbing material was mixed [4]: improved
